From the kinase profiling compilation of Christmann-Franck et al. (2016)

Columns and labels:
Test in all cases: KINOMEscan competition binding
Settings in all cases: compound 10.0 µM
BMPR2 (human) = BMPR2 (human) (UniProt Q13873)
CSNK1A1L (human) = CSNK1A1L (human) (UniProt Q8N752)
PRKAA1 (human) = PRKAA1 (human) (UniProt Q13131)
MAPK10 (human) = MAPK10 (human) (UniProt P53779)
LRRK2 (human) = LRRK2 (human) (UniProt Q5S007)
ACVR2B (human) = ACVR2B (human) (UniProt Q13705)
[1] = tested on: EGFR (human), P00533 [T790M/L858R]
ALK (human) = ALK (human) (UniProt Q9UM73)
Sequence of ALK (human) (Q9UM73 whole entry, looked up): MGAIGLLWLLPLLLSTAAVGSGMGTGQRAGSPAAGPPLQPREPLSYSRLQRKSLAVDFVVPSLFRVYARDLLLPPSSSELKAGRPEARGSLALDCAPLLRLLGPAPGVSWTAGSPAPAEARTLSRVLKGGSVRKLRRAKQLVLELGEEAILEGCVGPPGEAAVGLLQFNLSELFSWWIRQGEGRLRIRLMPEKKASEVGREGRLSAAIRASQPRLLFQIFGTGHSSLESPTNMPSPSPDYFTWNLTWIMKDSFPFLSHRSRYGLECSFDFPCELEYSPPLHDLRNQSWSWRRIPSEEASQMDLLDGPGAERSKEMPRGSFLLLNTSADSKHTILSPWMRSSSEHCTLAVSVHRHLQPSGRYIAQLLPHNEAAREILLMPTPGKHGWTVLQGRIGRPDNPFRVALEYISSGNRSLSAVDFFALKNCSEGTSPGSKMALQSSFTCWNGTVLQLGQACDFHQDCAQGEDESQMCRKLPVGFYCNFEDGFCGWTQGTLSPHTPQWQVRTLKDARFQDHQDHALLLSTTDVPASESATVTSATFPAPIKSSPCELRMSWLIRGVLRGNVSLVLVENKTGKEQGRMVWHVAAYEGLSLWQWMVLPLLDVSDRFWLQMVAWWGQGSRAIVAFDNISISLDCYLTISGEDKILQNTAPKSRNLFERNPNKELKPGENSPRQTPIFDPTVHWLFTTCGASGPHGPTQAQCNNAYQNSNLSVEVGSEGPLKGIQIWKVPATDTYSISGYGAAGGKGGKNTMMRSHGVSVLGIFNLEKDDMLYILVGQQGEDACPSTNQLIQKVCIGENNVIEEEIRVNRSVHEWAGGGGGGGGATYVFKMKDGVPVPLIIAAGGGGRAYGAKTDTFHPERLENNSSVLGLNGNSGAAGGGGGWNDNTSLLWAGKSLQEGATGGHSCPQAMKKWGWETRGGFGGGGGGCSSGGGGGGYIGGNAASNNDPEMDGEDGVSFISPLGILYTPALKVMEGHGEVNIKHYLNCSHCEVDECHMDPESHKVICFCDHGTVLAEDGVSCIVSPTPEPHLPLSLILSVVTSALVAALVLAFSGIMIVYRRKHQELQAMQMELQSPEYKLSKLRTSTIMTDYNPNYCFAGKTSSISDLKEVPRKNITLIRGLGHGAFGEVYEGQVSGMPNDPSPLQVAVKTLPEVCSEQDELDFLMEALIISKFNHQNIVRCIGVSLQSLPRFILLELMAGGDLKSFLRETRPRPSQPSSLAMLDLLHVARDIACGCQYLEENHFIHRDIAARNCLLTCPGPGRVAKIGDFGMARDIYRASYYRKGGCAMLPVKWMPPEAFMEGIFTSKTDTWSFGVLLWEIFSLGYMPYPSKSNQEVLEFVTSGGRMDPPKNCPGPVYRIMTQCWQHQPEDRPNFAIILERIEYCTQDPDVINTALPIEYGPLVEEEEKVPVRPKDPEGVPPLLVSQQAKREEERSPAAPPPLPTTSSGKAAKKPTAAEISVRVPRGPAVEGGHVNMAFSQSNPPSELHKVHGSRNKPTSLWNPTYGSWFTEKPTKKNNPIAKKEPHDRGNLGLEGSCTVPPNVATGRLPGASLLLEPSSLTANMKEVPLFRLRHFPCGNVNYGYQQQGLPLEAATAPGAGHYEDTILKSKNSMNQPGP

MST4 (human) = MST4 (human) (UniProt Q9P289)
STK32A (human) = STK32A (human) (UniProt Q8WU08)
CLK1 (human) = CLK1 (human) (UniProt P49759)
SGK110 (human) = SGK110 (human) (UniProt P0C264)
RIPK2 (human) = RIPK2 (human) (UniProt O43353)
PIP5K1A (human) = PIP5K1A (human) (UniProt Q99755)
ICK (human) = ICK (human) (UniProt Q9UPZ9)
Sequence of ICK (human) (Q9UPZ9 whole entry, looked up): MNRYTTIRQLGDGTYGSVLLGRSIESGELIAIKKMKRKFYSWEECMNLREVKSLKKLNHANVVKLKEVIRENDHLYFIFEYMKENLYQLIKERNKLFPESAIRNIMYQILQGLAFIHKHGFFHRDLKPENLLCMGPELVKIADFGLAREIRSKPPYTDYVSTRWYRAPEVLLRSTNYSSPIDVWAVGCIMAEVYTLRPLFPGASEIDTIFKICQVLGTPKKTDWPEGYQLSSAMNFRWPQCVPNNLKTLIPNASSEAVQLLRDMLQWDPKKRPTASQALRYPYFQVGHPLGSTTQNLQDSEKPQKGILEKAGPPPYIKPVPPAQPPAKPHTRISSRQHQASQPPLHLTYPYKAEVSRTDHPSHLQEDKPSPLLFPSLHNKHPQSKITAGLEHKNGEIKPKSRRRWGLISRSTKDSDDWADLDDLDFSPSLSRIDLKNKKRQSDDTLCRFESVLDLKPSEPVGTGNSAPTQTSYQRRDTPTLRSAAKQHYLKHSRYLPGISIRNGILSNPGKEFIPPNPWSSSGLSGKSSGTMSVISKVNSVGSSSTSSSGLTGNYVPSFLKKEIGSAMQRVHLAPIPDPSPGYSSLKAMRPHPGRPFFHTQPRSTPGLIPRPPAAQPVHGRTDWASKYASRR

EPHA8 (human) = EPHA8 (human) (UniProt P29322)
STK16 (human) = STK16 (human) (UniProt O75716)
PLK3 (human) = PLK3 (human) (UniProt Q9H4B4)
MAP4K5 (human) = MAP4K5 (human) (UniProt Q9Y4K4)
Sequence of MAP4K5 (human) (Q9Y4K4 whole entry, looked up): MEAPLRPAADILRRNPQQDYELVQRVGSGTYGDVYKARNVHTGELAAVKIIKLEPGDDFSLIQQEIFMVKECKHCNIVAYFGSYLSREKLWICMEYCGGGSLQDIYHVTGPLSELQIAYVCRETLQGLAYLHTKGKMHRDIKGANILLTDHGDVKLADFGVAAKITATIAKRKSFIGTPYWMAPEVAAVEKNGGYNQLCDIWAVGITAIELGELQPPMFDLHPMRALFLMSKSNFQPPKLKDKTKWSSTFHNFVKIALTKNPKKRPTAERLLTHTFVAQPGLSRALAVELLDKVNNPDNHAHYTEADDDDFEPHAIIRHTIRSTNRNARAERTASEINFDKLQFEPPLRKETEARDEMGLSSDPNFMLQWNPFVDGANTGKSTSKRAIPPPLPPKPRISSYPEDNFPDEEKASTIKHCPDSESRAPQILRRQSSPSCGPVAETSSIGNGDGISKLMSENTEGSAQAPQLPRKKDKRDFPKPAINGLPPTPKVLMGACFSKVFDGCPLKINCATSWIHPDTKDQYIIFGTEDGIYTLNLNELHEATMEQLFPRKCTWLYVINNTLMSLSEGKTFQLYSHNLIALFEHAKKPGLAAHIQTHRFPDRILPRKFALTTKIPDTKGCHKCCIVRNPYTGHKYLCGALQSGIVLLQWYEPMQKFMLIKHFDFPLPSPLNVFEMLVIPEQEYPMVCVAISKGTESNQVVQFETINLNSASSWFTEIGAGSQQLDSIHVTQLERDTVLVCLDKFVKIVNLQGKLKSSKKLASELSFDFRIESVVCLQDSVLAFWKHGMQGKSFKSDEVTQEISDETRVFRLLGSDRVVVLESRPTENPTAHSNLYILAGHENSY

MAP3K12 (human) = MAP3K12 (human) (UniProt Q12852)
NEK9 (human) = NEK9 (human) (UniProt Q8TD19)
PAK4 (human) = PAK4 (human) (UniProt O96013)
MAPK12 (human) = MAPK12 (human) (UniProt P53778)
RPS6KA3 KD1 (human) = RPS6KA3 KD1 (human) (UniProt P51812)
[2] = target: TYK2 JH1 catalytic (human) (UniProt P29597)
DAPK2 (human) = DAPK2 (human) (UniProt Q9UIK4)
Sequence of DAPK2 (human) (Q9UIK4 whole entry, looked up): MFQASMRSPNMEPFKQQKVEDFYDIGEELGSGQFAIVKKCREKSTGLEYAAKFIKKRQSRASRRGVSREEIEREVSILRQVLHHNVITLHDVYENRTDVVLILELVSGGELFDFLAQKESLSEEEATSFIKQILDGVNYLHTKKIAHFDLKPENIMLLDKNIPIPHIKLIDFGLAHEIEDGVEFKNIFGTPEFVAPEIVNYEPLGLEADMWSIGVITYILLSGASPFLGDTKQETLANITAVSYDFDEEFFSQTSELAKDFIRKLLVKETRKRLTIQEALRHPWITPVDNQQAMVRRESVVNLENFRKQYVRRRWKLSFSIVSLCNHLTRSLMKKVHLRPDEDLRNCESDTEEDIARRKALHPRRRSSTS

CDK3 (human) = CDK3 (human) (UniProt Q00526)
MAP3K13 (human) = MAP3K13 (human) (UniProt O43283)
PRKD1 (human) = PRKD1 (human) (UniProt Q15139)
HIPK3 (human) = HIPK3 (human) (UniProt Q9H422)
PIP4K2B (human) = PIP4K2B (human) (UniProt P78356)
CDKL1 (human) = CDKL1 (human) (UniProt Q00532)
Sequence of CDKL1 (human) (Q00532 whole entry, looked up): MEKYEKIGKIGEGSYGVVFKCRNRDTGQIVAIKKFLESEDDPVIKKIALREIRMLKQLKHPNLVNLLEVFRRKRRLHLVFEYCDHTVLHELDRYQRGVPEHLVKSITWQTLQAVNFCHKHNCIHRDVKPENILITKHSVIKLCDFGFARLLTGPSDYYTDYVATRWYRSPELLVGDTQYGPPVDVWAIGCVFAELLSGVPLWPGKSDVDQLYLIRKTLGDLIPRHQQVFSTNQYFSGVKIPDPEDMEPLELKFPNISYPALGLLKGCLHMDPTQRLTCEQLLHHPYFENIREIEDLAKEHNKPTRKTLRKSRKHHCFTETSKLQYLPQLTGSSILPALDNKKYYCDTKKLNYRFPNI

HUNK (human) = HUNK (human) (UniProt P57058)
EPHB6 (human) = EPHB6 (human) (UniProt O15197)
TESK1 (human) = TESK1 (human) (UniProt Q15569)
DCLK3 (human) = DCLK3 (human) (UniProt Q9C098)
TBK1 (human) = TBK1 (human) (UniProt Q9UHD2)
PRKD2 (human) = PRKD2 (human) (UniProt Q9BZL6)
FGFR3 (human) = FGFR3 (human) (UniProt P22607)
EPHB2 (human) = EPHB2 (human) (UniProt P29323)

Sequence of MAPK10 (human) (P53779 whole entry, looked up): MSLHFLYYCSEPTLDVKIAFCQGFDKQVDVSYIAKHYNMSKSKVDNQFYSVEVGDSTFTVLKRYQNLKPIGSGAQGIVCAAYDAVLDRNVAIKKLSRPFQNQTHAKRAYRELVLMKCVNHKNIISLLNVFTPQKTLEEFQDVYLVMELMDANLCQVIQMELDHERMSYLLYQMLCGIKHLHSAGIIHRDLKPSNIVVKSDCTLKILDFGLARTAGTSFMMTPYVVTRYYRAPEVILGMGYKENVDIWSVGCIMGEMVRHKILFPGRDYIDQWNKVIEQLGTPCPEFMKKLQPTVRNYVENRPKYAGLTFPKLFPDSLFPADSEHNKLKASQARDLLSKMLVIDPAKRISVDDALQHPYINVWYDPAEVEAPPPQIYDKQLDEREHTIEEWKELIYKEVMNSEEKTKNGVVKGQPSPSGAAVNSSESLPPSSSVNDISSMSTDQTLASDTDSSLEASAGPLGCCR
Sequence of ACVR2B (human) (Q13705 whole entry, looked up): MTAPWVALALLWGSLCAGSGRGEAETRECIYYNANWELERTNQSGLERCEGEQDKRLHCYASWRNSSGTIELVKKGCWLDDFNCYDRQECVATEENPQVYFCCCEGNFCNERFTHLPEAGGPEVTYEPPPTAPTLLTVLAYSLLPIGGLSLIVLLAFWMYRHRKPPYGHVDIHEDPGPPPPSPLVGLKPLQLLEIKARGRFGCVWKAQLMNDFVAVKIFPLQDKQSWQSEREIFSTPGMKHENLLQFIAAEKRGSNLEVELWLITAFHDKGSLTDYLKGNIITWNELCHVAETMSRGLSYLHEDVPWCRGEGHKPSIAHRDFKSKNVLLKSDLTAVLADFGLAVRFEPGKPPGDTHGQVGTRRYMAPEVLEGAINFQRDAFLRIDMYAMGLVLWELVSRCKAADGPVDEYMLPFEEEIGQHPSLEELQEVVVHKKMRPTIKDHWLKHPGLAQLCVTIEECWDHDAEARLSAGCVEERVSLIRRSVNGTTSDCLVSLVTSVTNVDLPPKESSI

Row | SMILES | kinase still bound, per cent of control (BMPR2 (human)) [%] | kinase still bound, per cent of control (CSNK1A1L (human)) [%] | kinase still bound, per cent of control (PRKAA1 (human)) [%] | kinase still bound, per cent of control (MAPK10 (human)) [%] | kinase still bound, per cent of control (LRRK2 (human)) [%] | kinase still bound, per cent of control (ACVR2B (human)) [%] | kinase still bound, per cent of control (ALK (human)) [%] | kinase still bound, per cent of control (MST4 (human)) [%] | kinase still bound, per cent of control (STK32A (human)) [%] | kinase still bound, per cent of control (CLK1 (human)) [%] | kinase still bound, per cent of control (SGK110 (human)) [%] | kinase still bound, per cent of control (RIPK2 (human)) [%] | kinase still bound, per cent of control (PIP5K1A (human)) [%] | kinase still bound, per cent of control (ICK (human)) [%] | kinase still bound, per cent of control (EPHA8 (human)) [%] | kinase still bound, per cent of control (PLK3 (human)) [%] | kinase still bound, per cent of control (MAP4K5 (human)) [%] | kinase still bound, per cent of control (MAP3K12 (human)) [%] | kinase still bound, per cent of control (NEK9 (human)) [%] | kinase still bound, per cent of control (PAK4 (human)) [%] | also measured
1 | C=CC(=O)Nc1cc(-n2c(=O)ccc3cnc4ccc(-c5cn[nH]c5)cc4c32)ccc1C | 4.6 | 90 | 96 | 1.8 | 38 | 21 | 100 | 79 | 100 | 0.4 | 100 | 56 | 44 | 67 | 96 | 99 | 93 | 76 | 100 | 100 | kinase still bound, per cent of control [1]: 18%; kinase still bound, per cent of control (STK16 (human)): 52%; kinase still bound, per cent of control (MAPK12 (human)): 98%; kinase still bound, per cent of control (RPS6KA3 KD1 (human)): 69%; kinase still bound, per cent of control [2]: 29%; kinase still bound, per cent of control (DAPK2 (human)): 57%; kinase still bound, per cent of control (CDK3 (human)): 100%; kinase still bound, per cent of control (MAP3K13 (human)): 84%; kinase still bound, per cent of control (PRKD1 (human)): 100%; kinase still bound, per cent of control (HIPK3 (human)): 48%; kinase still bound, per cent of control (PIP4K2B (human)): 73%; kinase still bound, per cent of control (CDKL1 (human)): 33%; kinase still bound, per cent of control (HUNK (human)): 86%; kinase still bound, per cent of control (EPHB6 (human)): 54%; kinase still bound, per cent of control (TESK1 (human)): 54%; kinase still bound, per cent of control (DCLK3 (human)): 100%; kinase still bound, per cent of control (TBK1 (human)): 100%; kinase still bound, per cent of control (PRKD2 (human)): 89%; kinase still bound, per cent of control (FGFR3 (human)): 89%; kinase still bound, per cent of control (EPHB2 (human)): 100%
2 | N#CCNC(=O)c1ccc(-c2ccnc(Nc3ccc(N4CCOCC4)cc3)n2)cc1 | 100 | 100 | 42 | 2.4 | 48 | 54 | 100 | 83 | 100 | 9.6 | 83 | 88 | 39 | 100 | 83 | 11 | 100 | 100 | 9.4 | 100 | kinase still bound, per cent of control (STK16 (human)): 6.2%; kinase still bound, per cent of control (MAPK12 (human)): 100%; kinase still bound, per cent of control (RPS6KA3 KD1 (human)): 100%; kinase still bound, per cent of control [2]: 0.25%; kinase still bound, per cent of control (DAPK2 (human)): 41%; kinase still bound, per cent of control (CDK3 (human)): 100%; kinase still bound, per cent of control (MAP3K13 (human)): 77%; kinase still bound, per cent of control (PRKD1 (human)): 22%; kinase still bound, per cent of control (HIPK3 (human)): 17%; kinase still bound, per cent of control (PIP4K2B (human)): 89%; kinase still bound, per cent of control (CDKL1 (human)): 60%; kinase still bound, per cent of control (HUNK (human)): 100%; kinase still bound, per cent of control (EPHB6 (human)): 58%; kinase still bound, per cent of control (TESK1 (human)): 100%; kinase still bound, per cent of control (DCLK3 (human)): 0.45%; kinase still bound, per cent of control (TBK1 (human)): 10%; kinase still bound, per cent of control (PRKD2 (human)): 43%; kinase still bound, per cent of control (FGFR3 (human)): 86%; kinase still bound, per cent of control (EPHB2 (human)): 100%
3 | COCC(=O)NC/C=C/c1ccc2ncnc(Nc3ccc(Oc4ccc(C)nc4)c(C)c3)c2c1 | 73 | 82 | 89 | 68 | 100 | 100 | 100 | 90 | 100 | 90 | 100 | 26 | 88 | 100 | 98 | 99 | 86 | 92 | 82 | 87 | kinase still bound, per cent of control (MAPK12 (human)): 100%; kinase still bound, per cent of control (RPS6KA3 KD1 (human)): 92%; kinase still bound, per cent of control [2]: 100%; kinase still bound, per cent of control (DAPK2 (human)): 89%; kinase still bound, per cent of control (CDK3 (human)): 100%; kinase still bound, per cent of control (MAP3K13 (human)): 80%; kinase still bound, per cent of control (PRKD1 (human)): 85%; kinase still bound, per cent of control (HIPK3 (human)): 100%; kinase still bound, per cent of control (PIP4K2B (human)): 100%; kinase still bound, per cent of control (CDKL1 (human)): 69%; kinase still bound, per cent of control (HUNK (human)): 70%; kinase still bound, per cent of control (EPHB6 (human)): 74%; kinase still bound, per cent of control (TESK1 (human)): 75%; kinase still bound, per cent of control (DCLK3 (human)): 83%; kinase still bound, per cent of control (TBK1 (human)): 90%; kinase still bound, per cent of control (PRKD2 (human)): 97%; kinase still bound, per cent of control (FGFR3 (human)): 100%; kinase still bound, per cent of control (EPHB2 (human)): 100%
